Measurements taken from US12274781B2, “Use of enzyme-modified isoquercitrin” (SAN-EI GEN F.F.I., INC., priority 2015, dated 2025).
Entries after “also recorded” stand apart in the source; their conditions may differ.

What was measured:
[1] = tested on: saliva secretion in healthy persons; test: Salivation-promoting effect of aqueous solutions, non-thickened or thickened with xanthan gum (Experimental Examples 1 and 2); format: in vivo, human; conditions: for Amount of salivation (standardized with water): average of 3 panelists, water = 1; for Salivation-promoting (saliva secretion-increasing) effect, in words: Experimental Example 1, aqueous solutions, equimolar in terms of rutin, humans; for Enhancement of the salivation-promoting effect by incorporating a thickening polysaccharide (thickening), in words: Experimental Example 2, 150 μM, 0.1 mass % xanthan gum
Method: Using 3 healthy persons (males, average age: 31.3 years old) as panelists, the salivation-promoting effect of the test samples prepared above was evaluated. Persons whose circadian variation of saliva secretion is relatively similar were selected as the panelists from candidates.
The evaluation was performed using 15 g of each test sample per test according to the following method. As a blank, a test was performed in the same manner using 15 g of water in place of the test samples.
(i) After 15 g of each sample is placed in the mouth and retained for 5 seconds, the sample is swallowed at one time.
(ii) After 5 seconds, absorbent cotton (37.5 mm×37.5 mm×4 mm) is placed under (the back of) the tongue, and retained for 2 minutes.
(iii) The absorbent cotton is removed from under the tongue, and the weight (g) of the cotton is measured. This weight is compared with the weight of the absorbent cotton before being placed in the mouth to calculate the difference in weight.
The above test was performed using the same test sample twice per panelist, and the average was calculated. Based on the average of each panelist, the average and standard deviation of all of the panelists were calculated.
Table 2 and FIG. 1 show the evaluation results (the average of 3 panelists). The results are shown as numerical values (relative values) standardized by setting the saliva secretion amount obtained by using the blank (water) as 1.
Test substances (enzymatically modified isoquercitrin preparation, αG rutin, and quercetin) were dissolved in drinking water, and adjusted so that the rutin content (molarity) of the structure of each compound was 150 μM (see Table 1). Further, xanthan gum was added to the aqueous solutions, so that the content thereof was 0.1 mass %, thus thickening the solutions. For comparison, xanthan gum-free aqueous solutions (an aqueous enzymatically modified isoquercitrin solution, an aqueous αG rutin solution, an aqueous quercetin solution) at a concentration of 150 μM in terms of rutin were prepared in the same manner as in Experimental Example 1.
The salivation-promoting effect of each test sample prepared above was evaluated in the same manner as in Experimental Example 1 (the panelists were also the same). Table 3 and FIG. 2 show the evaluation results (the average of 3 panelists).

saliva secretion in mice = conditions: cited from earlier work
[2] = 75 μM aqueous solution (in terms of rutin or molarity of quercetin), 15 g
[3] = 150 μM aqueous solution (in terms of rutin or molarity of quercetin), 15 g
[4] = 750 μM aqueous solution (in terms of rutin or molarity of quercetin), 15 g
[5] = 3750 μM aqueous solution (in terms of rutin or molarity of quercetin), 15 g
[6] = Non-thickened: 150 μM, xanthan gum-free, viscosity 1 mPa·s
[7] = Thickened: 150 μM with 0.1 mass % xanthan gum, viscosity 20 mPa·s

Compound	Amount of salivation (standardized with water) [1, 2]	Amount of salivation (standardized with water) [1, 3]	Amount of salivation (standardized with water) [1, 4]	Amount of salivation (standardized with water) [1, 5]	Salivation-promoting (saliva secretion-increasing) effect, in words [1]	Enhancement of the salivation-promoting effect by incorporating a thickening polysaccharide (thickening), in words [1]	Amount of salivation (standardized with water) [1, 6]	Amount of salivation (standardized with water) [1, 7]	Effect on hyposalivation (saliva secretion in mice; model mice having disturbance of salivary secretion created by radiation exposure)	Effect on saliva secretion (saliva secretion in mice; normal mice)	Salivation-promoting (saliva secretion-increasing) effect, in words ([1]; listed as α-glucosylrutin)
O=c1c(O)c(-c2ccc(O)c(O)c2)oc2cc(O)cc(O)c12 [quercetin]	0.989	0.826	1.032	1.132	not observed; also recorded: no salivation-promoting effect	not observed	0.826	0.868	reduces hyposalivation	enhances saliva secretion	
α-glucosylrutin [αG rutin]	0.910	0.841	0.872	0.932	not observed	not observed	0.841	0.719			no salivation-promoting effect
